Holding throughout (assay type): functional, cell-based
In one assay the test system is HeLa. Nature of the assay: Cytotoxicity against human HeLa cells by MTT assay.
Another assay has as its system DU-145. Nature of the assay: Cytotoxicity against human DU145 cells by MTT assay.
For the next assay, the system named is MCF7. Nature of the assay: Cytotoxicity against human MCF7 cells by MTT assay. (In general: Tetrazolium dyes change colour on reduction, which living cells bring about.)
A further assay relates to A549. Nature of the assay: Cytotoxicity against human A549 cells by MTT assay.
The mark [1] stands for this setting: Homo sapiens, HeLa, read-out: IC50.
The mark [2] stands for this setting: Homo sapiens, MCF7, read-out: IC50.
[3] abbreviates: Homo sapiens, A549, read-out: IC50.
Setting [4] is: Homo sapiens, DU-145, read-out: IC50.

The IC50 is the point on the concentration scale where inhibition reaches its midpoint. `COC(=O)C[C@H]1C[C@H](O)[C@@H](C)[C@@H](c2ccc(F)cc2)N1`: the IC50 is 17.4 µM in the assay on HeLa (setting [1]), “Not Active” in the assay on DU-145 (du-145), 18.2 µM in the assay on MCF7 (setting [2]) and 17.2 µM with A549 (setting [3]).
Consider `COC(=O)C[C@H]1C[C@@H](O)[C@@H](C)[C@@H](c2ccc(OC)cc2)N1`, for which the IC50 in the assay with HeLa (setting [1]) came out at 11.5 µM; in the assay with DU-145 (setting [4]) it was 12.6 µM; with MCF7 (setting [2]) it was 10.4 µM; with A549 (setting [3]), 23.5 µM.
Turning to `COC(=O)C[C@@H]1C[C@@H](O)[C@H](C)[C@H](c2ccccc2)N1`, the IC50 in the assay with HeLa (setting [1]) is 6.5 µM; in the assay with DU-145 (setting [4]) it was 6.3 µM; in the assay on MCF7 (setting [2]), 5.4 µM; in the assay on A549 (setting [3]), 8.5 µM.
As for `COC(=O)C[C@H]1C[C@H](O)[C@@H](C)[C@@H](c2ccc(OC)cc2)N1`, the IC50 in the assay with HeLa (setting [1]) amounted to 5.3 µM; in the assay with DU-145 (setting [4]) it was 6.5 µM; with MCF7 (setting [2]), 5.1 µM; in the assay on A549 (setting [3]), 5.4 µM.
In the case of `COC(=O)C[C@H]1C[C@@H](O)[C@H](C)[C@@H](c2ccccc2)N1`, the IC50 in the assay on HeLa (setting [1]) is 35.2 µM; with DU-145 (setting [4]) it was 64.1 µM; with MCF7 (setting [2]), 35.6 µM; with A549 (setting [3]), 34.6 µM.
With `COc1ccc([C@H]2N[C@@H](CC(=O)O)C[C@H](O)[C@H]2C)cc1`, the IC50 in the assay on HeLa (setting [1]) amounted to 19.9 µM; with DU-145 (setting [4]) it was 15.7 µM; in the assay with MCF7 (setting [2]), 12.5 µM; with A549 (setting [3]), 20.1 µM.
For the compound `COC(=O)C[C@@H]1C[C@H](O)[C@H](C)[C@H](c2ccccc2)N1`, the IC50 in the assay on HeLa (setting [1]) came to 14.2 µM; in the assay with DU-145 (setting [4]), 11.3 µM; in the assay with MCF7 (setting [2]), 12.3 µM; in the assay on A549 (setting [3]), 20.5 µM.
On to `COc1cccc2c1C(=O)c1c(O)c3c(c(O)c1C2=O)C[C@@](O)(C(=O)CO)C[C@@H]3O[C@H]1C[C@H](N)[C@H](O)[C@H](C)O1` [DOXORUBICIN], for which the results for the IC50 in the assay with HeLa (setting [1]), in the assay on MCF7 (setting [2]) and with A549 (setting [3]) were 0.7 µM, 0.6 µM and 0.6 µM, respectively.
As to `COc1ccc([C@H]2N[C@@H](CCO)C[C@H](O)[C@H]2C)cc1`, the IC50 with HeLa (setting [1]) was found to be 16.5 µM; in the assay on DU-145 (setting [4]) it was 14.8 µM; with MCF7 (setting [2]), 13.7 µM; in the assay on A549 (setting [3]), 17.6 µM.
For `COC(=O)C[C@H]1C[C@H](O)[C@@H](C)[C@@H](c2ccc(C(C)C)cc2)N1`, the half-inhibitory concentration (IC50) was 18.2 µM in the assay with HeLa (setting [1]), 27.4 µM in the assay with DU-145 (setting [4]), 17.1 µM in the assay with MCF7 (setting [2]) and “Not Active” in the assay on A549 (a549).
Take `COC(=O)C[C@H]1C[C@@H](O)[C@@H](C)[C@@H](c2ccc(F)cc2)N1`: the IC50 with HeLa (setting [1]) came to 19.8 µM; in the assay on DU-145 (setting [4]) it was 51.7 µM; with MCF7 (setting [2]) it was 15.6 µM; in the assay with A549 (setting [3]), 26.6 µM.
Consider `COC(=O)C[C@H]1C[C@@H](O)[C@@H](C)[C@@H](c2ccc(C)cc2)N1`, for which the IC50 with HeLa (setting [1]) is 13.4 µM; in the assay with DU-145 (setting [4]) it was 49.7 µM; in the assay on MCF7 (setting [2]) it was 12.2 µM; with A549 (setting [3]), 29 µM.
As for `C[C@H]1[C@H](O)C[C@@H](CCO)N[C@H]1c1ccccc1`, the 50% inhibitory concentration (IC50) was determined as 31.5 µM in the assay with HeLa (setting [1]), 41.6 µM with DU-145 (setting [4]), 39.8 µM in the assay on MCF7 (setting [2]) and 31.2 µM in the assay on A549 (setting [3]).
Regarding `COC(=O)C[C@H]1C[C@H](O)[C@@H](C)[C@@H](c2ccc(C)cc2)N1`, the concentration for half-maximal inhibition (IC50) entry was “Not Active” with HeLa (hela), 330 µM in the assay with DU-145 (setting [4]), “Not Active” with MCF7 (mcf7) and 97.6 µM in the assay with A549 (setting [3]).
For the compound `COC(=O)C[C@H]1C[C@@H](O)[C@@H](C)[C@@H](c2ccc(C(C)C)cc2)N1`, the IC50 entry in the assay on HeLa (hela) is “Not Active”; in the assay on DU-145 (setting [4]) it was 110 µM; with MCF7 (mcf7), “Not Active”; in the assay with A549 (a549) it was “Not Active”.
For the compound `COC(=O)C[C@H]1C[C@H](O)[C@H](C)[C@@H](c2ccccc2)N1`, the IC50 with HeLa (setting [1]) is 41.1 µM; with DU-145 (du-145) it was “Not Active”; with MCF7 (mcf7), “Not Active”; in the assay with A549 (setting [3]) it was 69.2 µM.
In the case of `C[C@H]1[C@H](O)C[C@@H](CC(=O)O)N[C@H]1c1ccccc1`, the half-maximal inhibitory concentration (IC50) with HeLa (setting [1]) amounted to 33.4 µM; in the assay on DU-145 (setting [4]) it was 46.5 µM; in the assay with MCF7 (setting [2]), 23.1 µM; in the assay with A549 (setting [3]), 28.9 µM.

The values are drawn from ChEMBL document CHEMBL3352547, “A concise diastereoselective approach to enantioenriched substituted piperidines and their in vitro cytotoxicity evaluation” (Bioorg Med Chem Lett, 2014).
